Test system: Ramos B-Cell Line Stimulated with IL-4 (JAK-1 and JAK-3 / Stat-6, CD23)
Experiment: Assay for Ramos B-Cell Line Stimulated with IL-4 (CD23 upregulation, FACS)
Format: cell-based
Details: Homo sapiens, Ramos, human Ramos B cells, compound 1 hour, IL-4 50 units/mL for 20-24 hours, anti-CD23-PE FACS; read-out: Example 2 (IC50)
Text: One means of assaying for such inhibition is detection of the effect of the 2,4-pyrimidinediamine compounds on the upregulation of downstream gene products. In the Ramos/IL4 assay, B-cells are stimulated with the cytokine Interleukin-4 (IL-4) leading to the activation of the JAK/Stat pathway through phosphorylation of the JAK family kinases, JAK1 and JAK3, which in turn phosphorylate and activate the transcription factor Stat-6. […] To study the effect of inhibitors (e.g., the 2,4-substituted pyrimindinediamine compounds described herein) on the JAK1 and JAK3 kinases, human Ramos B cells are stimulated with human IL-4. 20 to 24 hours post stimulation, cells are stained for upregulation of CD23 and analyzed using flow cytometry (FACS).
B-cells stimulated with cytokine Interleukin-4 (IL-4) activate the JAK/Stat pathway through phosphorylation of the JAK family kinases, JAK-1 and JAK-3, which in turn phosphorylate and activate the transcription factor Stat-6. […] To study the effect of inhibitors on the JAK family kinases, human Ramos B cells were stimulated with human IL-4.
Cells were maintained at a density of 3.5×10^5. The day before the experiment, Ramos B-cells were diluted to 3.5×10^5 cells/mL to ensure that they were in a logarithmic growth phase.
Cells were spun down and suspended in RPMI with 5% serum. 5×10^4 cells were used per point in a 96-well tissue culture plate. Cells were pre-incubated with compound or DMSO (Sigma-Aldrich, St. Louis, Mo., Cat No. D2650) vehicle control for 1 hour in a 37° C. incubator. Cells were then stimulated with IL-4 (Peprotech Inc., Rocky Hill, N.J., Cat No. 200-04) for a final concentration of 50 units/mL for 20-24 hours. […] Detection was performed using a BD LSR I System Flow Cytometer, purchased from Becton Dickinson Biosciences of San Jose, Calif.

Row | IC50 [nM] | Molecule
1 | 62.9 | CN1CCOc2cc(Nc3nc(Nc4ccc(C(N)=O)cc4)ncc3F)ccc21 [II-3, N2-(4-Aminocarbonylphenyl)-N4-(3,4-dihydro-4-methyl-2H-benzo[1,4]oxazin-7-yl)-5-fluoro-2,4-pyrimidinediamine]
2 | 391 | CNC(=O)COc1cc(Nc2ncc(F)c(Nc3ccc4c(c3)NC(=O)C(F)(F)O4)n2)ccc1OC [II-34, N4-(2,2-Difluoro-3-oxo-4H-benzo[1,4]oxazin-6-yl)-5-fluoro-N2-[4-methoxy-3-(N-methylaminocarbonylmethoxy)phenyl]-2,4-pyrimidinediamine]
3 | 1750 | Cc1noc(CCCc2ccc(Nc3nc(Nc4cccc(C#N)c4)ncc3F)cc2)n1 [Compound I-114, N2-(3-Cyanophenyl)-5-fluoro-N4-[4-(3-(3-methyl-1,2,4-oxadiazol-5-yl)propyl)phenyl]-2,4-pyrimidinediamine]
4 | 609 | Cc1cnc(Nc2ccc(C(N)=O)cc2)nc1Nc1ccc2c(c1)CCC(=O)N2C [II-29, N2-(4-Aminocarbonylphenyl)-5-methyl-N4-(1-methyl-2-oxo-1,2,3,4-tetrahydroquinolin-6-yl)-2,4-pyrimidinediamine]
5 | 258 | Cc1noc(COc2ccc(Nc3nc(Nc4ccc(CC#N)cc4)ncc3F)c(C)c2)n1 [Compound I-115, N2-(4-Cyanomethylphenyl)-5-fluoro-N4-[2-methyl-4-((3-methyl-1,2,4-oxadiazol-5-yl)methoxy)phenyl]-2,4-pyrimidinediamine]
6 | 287 | CC1(C)Oc2ccc(Nc3nc(Nc4ccc5c(c4)C(=O)NCC5)ncc3F)nc2NC1=O [IV-1, N4-[2,2-Dimethyl-3-oxo-4H-5-pyrido[1,4]oxazin-6-yl]-5-fluoro-N2-(I-oxo-1,2,3,4-tetrahydroisoquinolin-7-yl)-2,4-pyrimidinediamine]
7 | 2140 | Cc1noc(CCc2ccc(Nc3nc(Nc4ccc(CCC#N)cc4)ncc3F)cc2)n1 [Compound I-121, 5-Fluoro-N4-[4-(2-(3-methyl-1,2,4-oxadiazol-5-yl)ethyl)phenyl]-N2-[4-(2-cyanoethyl)phenyl]-2,4-pyrimidinediamine]
8 | 382 | N#CCc1ccc(Nc2ncc(F)c(Nc3ccc(Cc4ccncc4)cc3)n2)cc1 [Compound I-131, N2-(4-Cyanomethylphenyl)-5-fluoro-N4-[4-(4-pyridinylmethyl)phenyl]-2,4-pyrimidinediamine]
9 | 195 | Cc1cnc(Nc2cnc3c(c2)OCC(=O)N3)nc1Nc1cnc2c(c1)OCC(=O)N2 [VII-3, N4,N2-Bis(3-oxo[4H]-5-pyrido[1,4]oxazin-7-yl)-5-methyl-2,4-pyrimidinediamine]

The next lines start with the molecule.

Row | Molecule | IC50 [nM]
10 | N#CCOc1ccc(Nc2nc(Nc3ccc(CC#N)cc3)ncc2F)cc1Cl [Compound I-100, N4-(3-Chloro-4-cyanomethoxyphenyl)-N2-(4-cyanomethylphenyl)-5-fluoro-2,4-pyrimidinediamine] | 83
11 | CN1CCN(c2ccc(Nc3ncc(F)c(Nc4ccc(CC#N)cc4)n3)cc2C(N)=O)CC1 [Compound I-74, N2-[3-Aminocarbonyl-4-(4-methylpiperazin-1-yl)phenyl]-N4-(4-cyanomethylphenyl)-5-fluoro-2,4-pyrimidinediamine] | 429
12 | CC(C)(C#N)Oc1ccc(Nc2nc(Nc3ccc(C(N)=O)cc3)ncc2F)cc1 [Compound I-84, N2-(4-Aminocarbonylphenyl)-N4-[4-(1-cyano-1-methylethoxy)phenyl]-5-fluoro-2,4-pyrimidinediamine] | 148
13 | Cc1nc(COc2ccc(Nc3nc(Nc4cccc(C(N)=O)c4)ncc3F)cc2)no1 [Compound I-57, N2-(3-Aminocarbonylphenyl)-5-fluoro-N4-[4-((5-methyl-1,2,4-oxadiazol-3-yl)methoxy)phenyl]-2,4-pyrimidinediamine] | 292
14 | CNC(=O)c1cc(Nc2ncc(F)c(Nc3ccc(CC#N)cc3)n2)ccc1N1CCN(C)CC1 [Compound I-75, N4-(4-Cyanomethylphenyl)-5-fluoro-N2-[3-methylaminocarbonyl-4-(4-methylpiperazin-1-yl)phenyl]-2,4-pyrimidinediamine] | 694
15 | Cc1cc(Nc2nc(Nc3ccc(C(N)=O)cc3)ncc2F)cc(C)c1OCC#N [Compound I-90, N2-(4-Aminocarbonylphenyl)-N4-(4-cyanomethoxy-3,5-dimethylphenyl)-5-fluoro-2,4-pyrimidinediamine] | 91.5
16 | N#CCOc1ccc(Nc2nc(Nc3ccc(CC#N)cc3)ncc2F)cc1 [Compound I-64, N4-(4-Cyanomethoxyphenyl)-N2-(4-cyanomethylphenyl)-5-fluoro-2,4-pyrimidinediamine] | 79.7
17 | CC(C)(C#N)Oc1ccc(Nc2nc(Nc3cccc(C(N)=O)c3)ncc2F)cc1 [Compound I-85, N2-(3-Aminocarbonylphenyl)-N4-[4-(1-cyano-1-methylethoxy)phenyl]-5-fluoro-2,4-pyrimidinediamine] | 760
18 | Cc1cc(Nc2nc(Nc3ccc(CC#N)cc3)ncc2F)cc(C)c1OCC#N [Compound I-89, N4-(4-Cyanomethoxy-3,5-dimethylphenyl)-N2-(4-cyanomethylphenyl)-5-fluoro-2,4-pyrimidinediamine] | 167
19 | CC(C#N)Oc1ccc(Nc2nc(Nc3cccc(C(N)=O)c3)ncc2F)cc1 (stereo not shown) [Compound I-82, N2-(3-Aminocarbonylphenyl)-N4-[4-(1-cyanoethoxy)phenyl]-5-fluoro-2,4-pyrimidinediamine] | 350
20 | Cc1nc(COc2ccc(Nc3nc(Nc4cccc(C#N)c4)ncc3F)cc2)no1 [Compound I-59, N2-(3-Cyanophenyl)-5-fluoro-N4-[4-((5-methyl-1,2,4-oxadiazol-3-yl)methoxy)phenyl]-2,4-pyrimidinediamine] | 596
21 | COc1ccc(Nc2nc(Nc3ccc(C(=O)Nc4ccnn4C)cc3)ncc2F)cc1Cl [Compound I-4, N4-(3-Chloro-4-methoxyphenyl)-5-fluoro-N2-[4-((1-methyl-1H-pyrazol-5-yl)aminocarbonyl)phenyl]-2,4-pyrimidinediamine] | 57.5
22 | N#CCOc1cccc(Nc2nc(Nc3ccc(CC#N)cc3)ncc2F)c1 [Compound I-66, N4-(3-Cyanomethoxyphenyl)-N2-(4-cyanomethylphenyl)-5-fluoro-2,4-pyrimidinediamine] | 42.2

Same assay, conditions: human Ramos B cells, compound 1 hour, IL-4 50 units/mL for 20-24 hours, anti-CD23-PE FACS; read-out: Example 2 (IC50)

Row | IC50 [nM] | Molecule
23 | 213 | N2-(3-Cyanomethoxy-4,5-dimethoxyphenyl)-N4-(2,2-dimethyl-3-oxo-4H-5-pyrido[1,4]oxazin-6-yl)-5-fluoro-2,4-pyrimidinediamine [II-16]
24 | 599 | CN1CCN(C(=O)c2ccc(Nc3ncc(F)c(Nc4ccc(CC#N)cc4)n3)cc2)CC1 [Compound I-72, N4-(4-Cyanomethylphenyl)-5-fluoro-N2-[4-((4-methylpiperazin-1-yl)carbonyl)phenyl]-2,4-pyrimidinediamine]
25 | 36.2 | CNC(=O)COc1cccc(Nc2ncc(F)c(Nc3ccc4c(c3)N(CC#N)C(=O)CS4)n2)c1 [II-12, N4-(4-Cyanomethyl-3-oxo-2H-benzo[1,4]thiazin-6-yl)-5-fluoro-N2-[3-(N-methylaminocarbonylmethyleneoxy)phenyl]-2,4-pyrimidinediamine]
26 | 898 | Cc1nc(COc2ccc(Nc3nc(Nc4ccc(C(=O)N5CCN(C)CC5)cc4)ncc3F)cc2)no1 [Compound I-61, 5-Fluoro-N4-[4-((5-methyl-1,2,4-oxadiazol-3-yl)methoxy)phenyl]-N2-[4-((4-methylpiperazin-1-yl)carbonyl)phenyl]-2,4-pyrimidinediamine]
27 | 1010 | N2-[1-(2-(N-Morpholinyl)ethylaminocarbonyl)-1H-indol-6-yl]-N4-[4-(2-propynyloxy)phenyl]-2,4-pyrimidinediamine [VI-2]

Row | Molecule | IC50 [nM]
28 | NC(=O)c1cccc(Nc2ncc(F)c(Nc3ccc(OCc4ccccn4)cc3)n2)c1 [Compound I-133, N2-(3-Aminocarbonylphenyl)-5-fluoro-N4-[4-(2-pyridinylmethyleneoxy)phenyl]-2,4-pyrimidinediamine] | 1560
29 | CNC(=O)COc1cccc(Nc2ncc(Br)c(Nc3ccc(OC)c(Cl)c3)n2)c1 [Compound I-1, 5-Bromo-N4-(3-chloro-4-methoxyphenyl)-N2-[3-(N-methylaminocarbonylmethyleneoxy)phenyl]-2,4-pyrimidinediamine] | 123
30 | Cc1cc(COc2ccc(Nc3nc(Nc4ccc(CC#N)cc4)ncc3F)cc2)no1 [Compound I-130, N2-(4-Cyanomethylphenyl)-5-fluoro-N4-[4-((5-methylisoxazol-3-yl)methyleneoxy)phenyl]-2,4-pyrimidinediamine] | 344
31 | Cc1noc(COc2ccc(N(C)c3nc(Nc4cccc(C#N)c4)ncc3F)cc2)n1 [Compound I-17, N2-(3-Cyanophenyl)-5-fluoro-N4-methyl-N4-[4-((3-methyl-1,2,4-oxadiazol-5-yl)methyleneoxy)phenyl]-2,4-pyrimidinediamine] | 1780
